Measurements published in ChEMBL document CHEMBL1131034, “Synthesis and pharmacological characterization of novel 6-fluorochroman derivatives as potential 5-HT1A receptor antagonists” (J Med Chem, 1998).

Key:
[1] = biological target: T1, 5-hydroxytryptamine receptor 1A (Homo sapiens) (UniProt P08908); assay: Antagonist activity against CHO cells expressing the human 5-hydroxytryptamine 1A receptor in a forskolin stimulated adenylate cyclase (FSC) assay.; format: functional, cell-based
T1 sequence (whole entry): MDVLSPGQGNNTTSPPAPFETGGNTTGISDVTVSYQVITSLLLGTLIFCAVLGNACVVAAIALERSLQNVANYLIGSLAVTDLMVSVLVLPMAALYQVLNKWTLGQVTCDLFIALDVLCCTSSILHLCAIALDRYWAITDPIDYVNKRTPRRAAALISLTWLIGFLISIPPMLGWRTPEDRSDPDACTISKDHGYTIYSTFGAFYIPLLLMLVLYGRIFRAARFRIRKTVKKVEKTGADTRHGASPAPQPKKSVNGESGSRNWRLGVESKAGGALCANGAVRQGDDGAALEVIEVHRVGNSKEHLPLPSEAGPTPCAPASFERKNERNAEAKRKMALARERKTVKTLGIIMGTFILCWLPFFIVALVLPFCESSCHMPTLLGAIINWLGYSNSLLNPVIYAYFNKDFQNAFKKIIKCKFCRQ

[2] = biological target: Serotonin 1a (5-HT1a) receptor/Adrenergic receptor alpha-1 (Rattus norvegicus) (UniProt P15823+P23944+P43140+P19327); assay: Selectivity for 5-HT1A receptor of rat hippocampus and alpha-1 adrenergic receptor of rat cortex.; format: tissue-based
[3] = Binding affinity (Ki) ratio of D2 receptor of rat striatum and 5-HT1A receptor of rat hippocampus.; format: tissue-based
[4] = biological target: T2, 5-hydroxytryptamine receptor 1A (Rattus norvegicus, UniProt P19327); assay: Binding affinity against 5-hydroxytryptamine 1A receptor on rat hippocampus using [3H]8-OH-DPAT as radioligand.; format: tissue-based
T2 sequence (P19327 whole entry): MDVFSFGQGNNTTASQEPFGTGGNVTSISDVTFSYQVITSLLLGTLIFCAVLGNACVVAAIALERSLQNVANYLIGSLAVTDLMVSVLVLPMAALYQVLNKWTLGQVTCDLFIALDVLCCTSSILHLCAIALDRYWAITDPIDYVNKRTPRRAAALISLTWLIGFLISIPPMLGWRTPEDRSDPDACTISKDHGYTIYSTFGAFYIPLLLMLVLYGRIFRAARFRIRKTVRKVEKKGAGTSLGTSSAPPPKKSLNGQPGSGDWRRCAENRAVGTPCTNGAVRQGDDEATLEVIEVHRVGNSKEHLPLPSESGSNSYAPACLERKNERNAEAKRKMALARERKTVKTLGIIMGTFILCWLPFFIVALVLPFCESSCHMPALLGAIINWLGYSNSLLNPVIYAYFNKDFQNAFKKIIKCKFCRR

[5] = biological target: T3, Adrenergic receptor alpha-1 (Rattus norvegicus, UniProt P15823+P23944+P43140); assay: Binding affinity against alpha-1 adrenergic receptor on rat cortex using [3H]-prazosin as radioligand.; format: tissue-based, Brain
T3 sequence (P15823 whole entry): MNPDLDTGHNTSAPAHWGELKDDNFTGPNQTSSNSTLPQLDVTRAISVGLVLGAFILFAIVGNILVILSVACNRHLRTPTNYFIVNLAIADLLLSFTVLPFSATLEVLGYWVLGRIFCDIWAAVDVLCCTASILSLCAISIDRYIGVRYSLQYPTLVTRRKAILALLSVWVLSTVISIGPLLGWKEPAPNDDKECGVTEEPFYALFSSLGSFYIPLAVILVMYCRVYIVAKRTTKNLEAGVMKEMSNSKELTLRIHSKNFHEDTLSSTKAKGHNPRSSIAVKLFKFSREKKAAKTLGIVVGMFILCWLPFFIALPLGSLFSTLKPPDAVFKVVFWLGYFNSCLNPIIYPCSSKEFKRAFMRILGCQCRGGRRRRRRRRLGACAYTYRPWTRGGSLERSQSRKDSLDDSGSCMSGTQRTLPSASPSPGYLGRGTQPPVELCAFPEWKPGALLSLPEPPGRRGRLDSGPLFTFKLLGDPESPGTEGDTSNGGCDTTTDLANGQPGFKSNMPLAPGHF
T3 sequence (P23944 whole entry): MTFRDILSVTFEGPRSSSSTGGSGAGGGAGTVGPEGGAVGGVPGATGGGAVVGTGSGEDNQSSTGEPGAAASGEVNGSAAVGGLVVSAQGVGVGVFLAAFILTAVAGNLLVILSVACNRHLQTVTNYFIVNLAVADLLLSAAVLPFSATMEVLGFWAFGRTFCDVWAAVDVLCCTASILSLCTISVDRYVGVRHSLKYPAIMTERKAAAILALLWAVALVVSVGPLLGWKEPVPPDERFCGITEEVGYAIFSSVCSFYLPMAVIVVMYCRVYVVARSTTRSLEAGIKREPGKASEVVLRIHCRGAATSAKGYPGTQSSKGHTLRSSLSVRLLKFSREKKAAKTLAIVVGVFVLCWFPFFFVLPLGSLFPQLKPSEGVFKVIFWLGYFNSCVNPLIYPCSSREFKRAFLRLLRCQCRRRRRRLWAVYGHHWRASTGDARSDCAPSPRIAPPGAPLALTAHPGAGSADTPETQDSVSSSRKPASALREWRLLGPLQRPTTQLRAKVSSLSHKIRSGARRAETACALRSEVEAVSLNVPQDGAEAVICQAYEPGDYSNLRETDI
T3 sequence (P43140 whole entry): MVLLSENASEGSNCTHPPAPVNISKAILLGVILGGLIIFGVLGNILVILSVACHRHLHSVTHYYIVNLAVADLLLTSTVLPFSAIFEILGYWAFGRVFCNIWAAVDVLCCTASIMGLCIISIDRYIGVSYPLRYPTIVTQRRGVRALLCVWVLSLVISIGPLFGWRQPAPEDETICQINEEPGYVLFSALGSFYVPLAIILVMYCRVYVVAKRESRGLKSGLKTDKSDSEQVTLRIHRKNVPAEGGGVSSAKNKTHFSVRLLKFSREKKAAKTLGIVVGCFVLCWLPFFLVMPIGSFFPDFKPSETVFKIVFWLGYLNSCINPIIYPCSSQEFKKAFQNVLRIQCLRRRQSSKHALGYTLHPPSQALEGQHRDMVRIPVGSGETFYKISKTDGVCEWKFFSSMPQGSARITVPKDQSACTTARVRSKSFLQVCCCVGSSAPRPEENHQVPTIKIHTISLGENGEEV

D(2) dopamine receptor = D(2) dopamine receptor (Rattus norvegicus, UniProt P61169); assay: Binding affinity against dopamine receptor D2 on rat striatum using [3H]spiperone as radioligand.; format: tissue-based
Sequence of D(2) dopamine receptor (P61169 whole entry): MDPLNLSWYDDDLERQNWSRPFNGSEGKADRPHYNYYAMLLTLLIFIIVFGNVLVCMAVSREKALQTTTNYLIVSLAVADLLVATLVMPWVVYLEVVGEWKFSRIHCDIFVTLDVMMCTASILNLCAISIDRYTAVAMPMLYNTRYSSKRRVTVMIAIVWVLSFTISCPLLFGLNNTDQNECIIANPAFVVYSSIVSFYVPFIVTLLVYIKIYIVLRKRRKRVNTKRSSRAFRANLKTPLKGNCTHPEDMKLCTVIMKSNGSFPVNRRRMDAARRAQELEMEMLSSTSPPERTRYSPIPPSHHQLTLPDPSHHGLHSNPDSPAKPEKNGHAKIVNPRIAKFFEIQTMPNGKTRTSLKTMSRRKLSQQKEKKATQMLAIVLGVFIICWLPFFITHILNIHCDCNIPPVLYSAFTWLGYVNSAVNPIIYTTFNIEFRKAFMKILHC

Structure (SMILES) | FSC recovery [1] | Selectivity [2] | Ratio [3] | Ki [4] | Ki [5] | Ki (D(2) dopamine receptor)
COc1ccc(CCCCNCCOc2cc(F)cc3c2OCCC3O)cc1 (single isomer, unassigned; (+)) [listing 1 of 2 here] | 109% | 35 | 0.23 |  |  | 
COc1ccc(CCCCNCCOc2cc(F)cc3c2OCCC3=O)c2ccccc12 | -15% | 0.29 | 0.23 | 680 nM | 198 nM | 153 nM
O=C1CCOc2c(OCCNCCCCc3ccc([N+](=O)[O-])cc3)cc(F)cc21 | 3% | 13 |  | 19.3 nM | 258 nM | 
O=C1CCOc2c(OCCNCCCCc3ccc(Cl)cc3)cc(F)cc21 | 30% | 5.2 | 1.7 | 19 nM | 98.9 nM | 32.3 nM
COc1ccc(CCCCN(C)CCOc2cc(F)cc3c2OCCC3=O)cc1 | 10% | 26 |  | 52.7 nM | 1350 nM | 
COc1ccc(CCCCNCCOc2cc(F)cc3c2OCCC3OC)cc1 (stereo unspecified) | 111% | 9.6 | 0.5 | 18.3 nM | 175 nM | 9.07 nM
COc1ccc(CCCCNCCOc2cc(F)cc3c2OCCC3O)cc1 (stereo in doubt; (-)-34) [listing 1 of 2 here] | 111% | 19 | 13 |  |  | 
CCCN(CCCCc1ccc2c(c1)OCO2)CCOc1cc(F)cc2c1OCCC2=O | 6% | 11 | 22 | 69 nM | 734 nM | 1540 nM
COc1cccc(CCCCNCCOc2cc(F)cc3c2OCCC3=O)c1 | 3% | 5.7 | 2.6 | 43.4 nM | 249 nM | 111 nM
CCOc1ccc(CCCCNCCOc2cc(F)cc3c2OCCC3=O)cc1 | 52% | 37 | 3.1 | 18 nM | 663 nM | 55.1 nM
COc1ccc(CCCCNCCOc2cc(F)cc3c2OCCC3O)cc1 (stereo in doubt; 34) | 108% | 15 | 1 |  |  | 
COc1ccc(CCCCNCCOc2cc(F)cc3c2OCCC3=O)c(C)c1C | 17% | 2 |  | 77 nM | 152 nM | 
COc1ccccc1CCCCNCCOc1cc(F)cc2c1OCCC2=O | 44% | 3.2 | 0.99 | 24 nM | 75.6 nM | 23.7 nM
COc1ccc(CCCCNCCOc2cc(F)cc3c2OCC/C3=N/O)cc1 | 83% | 7.5 | 0.42 | 27.7 nM | 207 nM | 11.7 nM
CSc1ccc(CCCCNCCOc2cc(F)cc3c2OCCC3=O)cc1 | 49% | 17 | 2.1 | 18.4 nM | 315 nM | 38.8 nM
O=C1CCOc2c(OCCNCCCCc3ccccc3)cc(F)cc21 | 16% | 2.2 | 1.1 | 41.8 nM | 91.5 nM | 43.9 nM
CCCOc1ccc(CCCCNCCOc2cc(F)cc3c2OCCC3=O)cc1 | 33% | 18 |  | 48.8 nM | 856 nM | 
O=C1CCOc2c(OCCNCCCCc3ccc(O)cc3)cc(F)cc21 | 26% | 2.2 | 0.42 | 55.8 nM | 120 nM | 23.3 nM

Continued by falling Ki [4], values first:

FSC recovery [1] | Selectivity [2] | Ratio [3] | Ki [4] | Ki [5] | Ki (D(2) dopamine receptor) | Structure (SMILES)
17% | 32 | 6.4 | 11 nM | 355 nM | 70.4 nM | N#Cc1ccc(CCCCNCCOc2cc(F)cc3c2OCCC3=O)cc1
40% | 2.1 | 0.52 | 9.53 nM | 19.9 nM | 4.98 nM | COc1ccc(CCCNCCOc2cc(F)cc3c2OC(C)CC3)cc1 (stereo unspecified)
76% | 3.4 | 0.26 | 8.99 nM | 30.8 nM | 2.31 nM | COc1ccc(CCCCCCNCCOc2cc(F)cc3c2OC(C)CC3)cc1 (stereo unspecified)
59% | 2.6 | 0.41 | 7.33 nM | 19.1 nM | 3.02 nM | COc1ccc(CCCCCNCCOc2cc(F)cc3c2OC(C)CC3)cc1 (stereo unspecified)
9% | 78 | 9.4 | 4.04 nM | 317 nM | 38 nM | COc1ccc(CCNCCOc2cc(F)cc3c2OCCC3=O)cc1
68% | 5.8 | 1.3 | 2.34 nM | 13.5 nM | 2.99 nM | COc1ccc(CCNCCOc2cc(F)cc3c2OCCC3O)cc1 (stereo unspecified)
 |  |  | 2.1 nM | 73.3 nM | 0.482 nM | COc1ccc(CCCCNCCOc2cc(F)cc3c2OCCC3O)cc1 (single isomer, unassigned; (+)) [listing 2 of 2 here]
44% | 8.2 | 0.34 | 0.435 nM | 3.57 nM | 0.149 nM | COc1ccc(CCCCNCCOc2cc(F)cc3c2OC(C)(C)CC3)cc1
 |  |  | 0.31 nM | 5.86 nM | 4.11 nM | COc1ccc(CCCCNCCOc2cc(F)cc3c2OCCC3O)cc1 (stereo in doubt; (-)-34) [listing 2 of 2 here]
53% | 15 | 1.2 | 0.27 nM | 4.07 nM | 0.312 nM | COc1ccc(CCCCNCCOc2cc(F)cc3c2OC(C)CC3)cc1 (stereo unspecified)
12% | 15 | 43 | 0.188 nM | 2.73 nM | 8.13 nM | COc1ccc(CCNCCOc2cc(F)cc3c2OC(C)CC3)cc1 (stereo unspecified)
